Test results reported in patent US11389456B2, “Compounds and methods for treating oxalate-related diseases” (OxaluRx, Inc., priority 2018, dated 2022).
In brackets after ≈: the same amount, converted by molar mass.

How the values were obtained:
[1] = molecular target: recombinant full-length human hydroxyacid oxidase 1 (HAO1), the equivalent of hGOX (Homo sapiens (Human), UniProt Q9UJM8); test: In-vitro human glycolate oxidase (hGOX) assay (Amplex red/HRP fluorescence); format: biochemical
Description: Biological Activity Assay: In-Vitro Human Glycolate Oxidase (hGOX) Assay
The in-vitro glycolate oxidase assay was performed using recombinant full-length human hydroxyacid oxidase 1 (HAO1), the equivalent of hGOX. […] Purified HAO1 was dissolved in assay buffer consisting of 10 mM NaCl, 110 mM KCl, 2 mM MgCl2, 50 mM HEPES (pH 7.4) and 0.01% Triton™ X-100.

[2] = Solubility in phosphate buffered saline (PBS), pH 7.4; format: physicochemical; settings: phosphate buffer (PBS), aqueous buffer, kinetic from dmso stock; phosphate buffered saline pH 7.4, 1% DMSO, 1 hour shaking at room temperature
Description: (§1) For testing compound solubility in phosphate buffered saline (PBS), compound stock solutions were prepared at 10 mM in 100% DMSO. For testing in aqueous solution, the phosphate buffer was replaced with deionized, distilled water. Eleven grams Na2HPO4 (FW: 141.96 g/mol) and 3.5 g NaH2PO4.2H2O (FW: 156.03 g/mol) was added to 1 L Milli-Q water and adjusted to a pH to 7.4 with phosphoric acid or sodium hydroxide. For incubation, media were preheated to 37° C. Eight μL aliquots of reference and test compound stock solutions (10 mM) were added into 792 μL of 100 mM phosphate buffer (pH 7.4). The final DMSO concentration was 1%. Sample tubes were shaken for 1 hour at 1000 rpm at room temperature.
(§2) The calibration curve was prepared with 300-μM spiking solution (SS) in MeOH:acetonitrile (4:1). Six μL of 10 mM compound was added in 194 μL MeOH/acetonitrile (4:1). Samples were centrifuged for 10 minutes at 12,000 rpm to precipitate undissolved particles. Supernatants were transferred to a new tube or plate and dilute 10-fold and 100-fold with 100 mM buffer. Samples were prepared for LC-MS/MS analysis by adding 5 μL each sample (undiluted, 10-fold diluted, and 100-fold diluted) and 5 μL of standard curve samples to 95 μL of acetonitrile (containing internal standard).

[3] = Solubility in aqueous solution (deionized, distilled water); format: physicochemical; settings: kinetic from dmso stock, 1% DMSO, read-out: Aqueous Solubility H2O
Description: as §1, §2

[4] = Metabolic stability in human liver microsomal preparation; format: in vitro ADME; settings: pH 7.4, human liver microsomes, NADPH, 37° C.; for half-life at 1 μM: 0-45 min, read-out: Metabolic Stability t1/2
Description: For evaluating the metabolic stability in human liver microsomal preparation, three buffers were prepared. Buffer A had 1.0 L of 0.1 M monobasic potassium phosphate buffer containing 1.0 mM EDTA. Buffer B had 1.0 L of 0.1 M dibasic potassium phosphate buffer containing 1.0 mM EDTA. Buffer C had 0.1 M potassium phosphate buffer, 1.0 mM EDTA, adjusted to a pH 7.4 via titrating 700 mL buffer B with buffer A. Reference compound (ketanserin) and test compounds spiking solutions (500 μM) were prepared by adding 10 μL of 10 mM DMSO stock compound solution into 190 μL acetonitrile. A volume of 1.5 μL 500 μM spiking solution and 18.75 μL 20 mg/mL human liver microsomes were added into 479.75 μL of Buffer C on ice. A stock solution of 6 mM NADPH was prepared by dissolving NADPH into Buffer C.
Wells on an assay plate were iced and filled with 30 μL 1.5-μM spiking solution containing 0.75 mg/mL microsomes solution and designated for different timepoints (0-, 5-, 15-, 30-, 45-min). For the 0-min timepoint, 135 μL acetonitrile containing internal standard were added followed by 15 μL of NADPH stock solution (6 mM). All other plates were preincubated at 37° C. for 5 minutes and 15 μL NADPH stock solution (6 mM) were added to the plates to start the reaction. At 5-min, 15-min, 30-min, and 45-min, 135 μL acetonitrile containing internal standard were added to the wells of corresponding plates, respectively, to stop the reaction. After quenching, the plates were shaken on the vibrator (IKA, MTS 2/4) for 10 min at 600 rpm and then centrifuged at 5594×g for 15 minutes (Thermo Multifuge×3R). Fifty μL supernatant from each well were transported into a 96-well sample plate containing 50 μL of ultra-pure water (Millipore, ZMQS50F01) for LC/MS analysis.

[5] = Stability in human plasma; format: in vitro ADME; settings: read-out: Plasma Stability T1/2
Description: Stability in Human Plasma.
Stock compounds were prepared for testing the stability in human plasma. First, 0.05 M sodium phosphate and 0.07 M NaCl buffer, pH 7.4, were pre-heated. In deionized water, 14.505 g/L Na2HPO 12H2O, 1.483 g/L NaH2PO4.2H2O and 4.095 g/L NaCl were dissolved. The basic solution was titrated with the phosphoric acid to pH 7.40. Frozen plasma was quickly thawed at 37° C. The plasma was centrifuged at 3,000 rpm for 8 minutes to remove clots, then pipetted and pooled as the plasma stock for the experiment. Only plasma within the range of pH 7.4 to pH 8 was used. If higher than pH 8, the plasma was discarded. The initial pH of the plasma was not adjusted to pH 7.4 with acid or by bubbling with carbon dioxide. By using a 5% carbon dioxide incubator and PBS buffer, a pH of 7.4 will be reached after the 4-hour equilibrium dialysis time. Plasma was iced until use.
Spiking solution A with 0.5 mM testing compounds was prepared by adding 10 μL of 10 mM test compounds stock solution to 190 μL DMSO. Spiking solution B with 0.02 mM testing compound was prepared by adding 40 μL of spiking solution A to 960 μL of […] sodium phosphate buffer with 0.5% BSA. The plasma and spiking solution B were prewarmed at 37° C. for 5 minutes. Ten μL of pre-warmed spiking solution B was added into the wells designated for all the time points (5, 15, 30, 45, 60 minutes). For the 0-minute timepoint, 400 μL acetonitrile containing internal standard were added to the wells of 0-minute plate and then 90 μL plasma were added. For the other timepoints, 90 μL of pre-warmed plasma were added into the wells (0, 5, 15, 30, 45, 60 minutes) and the timing was started. At 5, 15, 30, 45, 60 minutes, 400 μL acetonitrile containing internal standard were added to the wells of corresponding plates, respectively, to stop the reaction. After quenching, the plates were shaken on a vibrator (IKA, MTS 2/4) for 10 minutes at 600 rpm and then centrifuged at 5594×g for 15 minutes (Thermo Multifuge×3R). Fifty μL of supernatant was transferred from each well into a 96-well sample plate containing 50 μL ultra-pure water (Millipore, ZMQS50F01) for LC/MS analysis.

[6] = Protein binding (plasma equilibrium dialysis); format: in vitro ADME; settings: 5 hours at 37° C.; for fraction unbound at 5 h, 1 μM: read-out: Protein Binding Fraction Bound (converted)
Description: For testing protein binding of stock compounds solubilized in DMSO, spiking solutions of test and reference compounds were prepared. Solution A (0.5 mM) was prepared by adding 10 μL of 10 mM stock solution into 190 μL of DMSO. Solution B (0.02 mM) was prepared by adding 8 μL of Solution A into 192 μL of 0.05 M sodium phosphate buffer. The final DMSO concentration in Solution B was 4%.
To prepare test and reference compounds in plasma, a 96-well plate with 380 μL aliquots of plasma in the wells designed for plasma and buffer, respectively. Twenty μL of Solution B (0.02 mM of test and reference compounds) were spiked into the pre-loaded plasma in the 96-well plate. The final test concentration is 1 μM containing 0.2% DMSO.
For dialysis sample loading a plasma again buffer system was prepared by applying aliquots of 100 μL of blank dialysis buffer to the receiver side of dialysis chambers and then applying aliquots of 100 μL of the plasma spiked with test and reference compounds to the donor side of the dialysis chamber. A 25-μL aliquot of the plasma spiked with test and reference compounds was added into a 96-well sample preparation plate as T″0″ plasma samples. Aliquots were mixed with the same volume of blank buffer (50:50, volume:volume). Samples were quenched with 200 μL of acetonitrile containing internal standard. The dialysis block was covered and a shaken at 60 rpm for 5 hours at 37° C.
After a 5-hour incubation, dialyzed samples were prepared from 25-μL aliquots from both the donor and receiver sides of the dialysis apparatus into new sample preparation plates. The aliquots were mixed with same volume of opposite matrixes. The samples were quenched with 200 μL acetonitrile containing internal standard. All 0-hour and 5-hour samples were vortexed at 600 rpm for 10 min followed by centrifugation at 5594×g for 15 minutes (Thermo Multifuge×3R). Fifty μL of the supernatants were transferred to anew 96-well plate and mixed with 50 μL Milli-Q water. The sample plate was covered and frozen at −20° C. until LC/MS/MS analysis.

Chain of recombinant full-length human hydroxyacid oxidase 1 (HAO1), the equivalent of hGOX (Q9UJM8 whole entry): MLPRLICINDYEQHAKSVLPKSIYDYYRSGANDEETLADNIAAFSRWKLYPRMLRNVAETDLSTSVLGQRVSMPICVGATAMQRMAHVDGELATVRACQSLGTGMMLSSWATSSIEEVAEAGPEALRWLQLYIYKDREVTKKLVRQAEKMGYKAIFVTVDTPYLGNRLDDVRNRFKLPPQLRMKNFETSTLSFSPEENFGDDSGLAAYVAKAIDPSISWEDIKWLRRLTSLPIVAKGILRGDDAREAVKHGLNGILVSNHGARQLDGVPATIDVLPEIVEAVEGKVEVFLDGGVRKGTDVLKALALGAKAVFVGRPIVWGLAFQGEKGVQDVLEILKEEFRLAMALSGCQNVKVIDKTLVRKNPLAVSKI

| Structure (SMILES) | IC50 [1] | solubility at 1 h [2] | solubility at 1 h [3] | CLint scaled at 1 μM [4] | half-life at 1 μM [4] | half-life at 2 μM [5] | recovery at 5 h, 1 μM [6] | fraction unbound at 5 h, 1 μM [6] |
| --- | --- | --- | --- | --- | --- | --- | --- | --- |
| O=C(O)c1nn[nH]c1Sc1ccc2ccccc2c1 [Example I-031, 5-(Naphthalen-2-ylthio)-1H-1,2,3-triazole-4-carboxylic acid] | 69 nM | 121 µM (≈ 32.8 µg/mL) | 110 µM (≈ 29.8 µg/mL) | 2.21 mL/min/kg | 13.1 h | 1.25 h | 117% | – |
| O=C(O)c1nn[nH]c1Oc1ccc(C2CCCC2)cc1 [Example I-265, 5-(4-Cyclopentylphenoxy)-1H-1,2,3-triazole-4-carboxylic acid] | 25 nM | 107 µM (≈ 29.2 µg/mL) | 100 µM (≈ 27.4 µg/mL) | 18.6 mL/min/kg | 1.55 h | 1.44 h | 110% | – |
| O=C(O)c1nn[nH]c1Sc1ccc(-c2ccccc2)cc1 [Example I-128, 5-([1,1′-Biphenyl]-4-ylthio)-1H-1,2,3-triazole-4-carboxylic acid] | 227 nM | 122 µM (≈ 36.4 µg/mL) | 106 µM (≈ 31.5 µg/mL) | 10.1 mL/min/kg | 2.87 h | 0.755 h | 126% | – |
| C=Cc1ccc(Oc2[nH]nnc2C(=O)O)cc1 [Example I-285, 5-(4-Vinylphenoxy)-1H-1,2,3-triazole-4-carboxylic acid] | 38 nM | 101 µM (≈ 23.4 µg/mL) | 97.6 µM (≈ 22.6 µg/mL) | < 0.15 mL/min/kg | > 83.3 h | 8.02 h | 98.8% | 0.012 |
| COc1cc(-c2ccc(Oc3[nH]nnc3C(=O)O)cc2)ccc1F [Example I-271, 5-((4′-Fluoro-3′-methoxy-[1,1′-biphenyl]-4-yl)oxy)-1H-1,2,3-triazole-4-carboxylic acid] | 7 nM | 110 µM (≈ 36.2 µg/mL) | 90.1 µM (≈ 29.7 µg/mL) | 3.49 mL/min/kg | 8.31 h | 2.82 h | 110% | 0.01 |
| Cc1ccc(-c2ccc(Oc3[nH]nnc3C(=O)O)cc2)cc1 [Example I-151, 5-((4′-Methyl-[1,1′-biphenyl]-4-yl)oxy)-1H-1,2,3-triazole-4-carboxylic acid] | 11 nM | 83.2 µM (≈ 24.6 µg/mL) | 53 µM (≈ 15.6 µg/mL) | < 0.15 mL/min/kg | > 83.3 h | 0.669 h | – | – |
| O=C(O)c1nn[nH]c1Oc1ccc(S(F)(F)(F)(F)F)cc1 [Example I-049, 5-(4-Pentafluorosulfanylphenoxy)-1H-1,2,3-triazole-4-carboxylic acid] | 50 nM | – | – | – | – | 3.65 h | 107% | 0.006 |

Continued by falling IC50 [1], values first:

| IC50 [1] | solubility at 1 h [2] | solubility at 1 h [3] | CLint scaled at 1 μM [4] | half-life at 1 μM [4] | half-life at 2 μM [5] | recovery at 5 h, 1 μM [6] | fraction unbound at 5 h, 1 μM [6] | Structure (SMILES) |
| --- | --- | --- | --- | --- | --- | --- | --- | --- |
| 105 nM | 109 µM (≈ 36 µg/mL) | 103 µM (≈ 34.2 µg/mL) | < 0.15 mL/min/kg | > 83.3 h | 2.19 h | 91.8% | 0.01 | O=C(O)c1nn[nH]c1Oc1cccc(S(F)(F)(F)(F)F)c1 [Example I-269, 5-(3-Pentafluorosulfanylphenoxy)-1H-1,2,3-triazole-4-carboxylic acid] |
| 35 nM | 79.8 µM (≈ 21.8 µg/mL) | 82.6 µM (≈ 22.6 µg/mL) | < 0.15 mL/min/kg | > 83.3 h | 1.15 h | 113% | – | O=C(O)c1nn[nH]c1Oc1cccc(C2CCCC2)c1 [Example I-267, 5-(3-Cyclopentylphenoxy)-1H-1,2,3-triazole-4-carboxylic acid] |
| 32 nM | 112 µM (≈ 29.1 µg/mL) | 111 µM (≈ 28.7 µg/mL) | 4.98 mL/min/kg | 5.82 h | 2.61 h | 98.2% | – | O=C(O)c1nn[nH]c1Oc1cccc(C2CCC2)c1 [Example I-279, 5-(3-Cyclobutylphenoxy)-1H-1,2,3-triazole-4-carboxylic acid] |
| 14 nM | 92.6 µM (≈ 24 µg/mL) | 95.8 µM (≈ 24.8 µg/mL) | 15.1 mL/min/kg | 1.92 h | 3.45 h | 103% | 0.002 | CC(C)=Cc1cccc(Oc2[nH]nnc2C(=O)O)c1 [Example I-286, 5-(3-(2-Methylprop-1-en-1-yl)phenoxy)-1H-1,2,3-triazole-4-carboxylic acid] |
| 10 nM | – | – | – | – | 3.11 h | 116% | 0.103 | COc1ccc(-c2ccc(Oc3[nH]nnc3C(=O)O)cc2)cc1 [Example I-153, 5-((4′-Methoxy-[1,1′-biphenyl]-4-yl)oxy)-1H-1,2,3-triazole-4-carboxylic acid] |
